Test results from PMC2901175 (ACS medicinal chemistry letters, 2010).
Converted amounts (≈) assume the structure as drawn.

What was measured:
[1] = test system: VIM-2 expressing bacteria; settings: cited from earlier work
[2] = target: VIM-2; settings: against VIM-2; cited from earlier work
[3] = test system: IMP-1; settings: cited from earlier work
[4] = test system: BL21/VIM-2 E. coli; assay: Imipenem MIC potentiation in VIM-2 transformed E. coli; format: cell-based
[5] = test system: parental (BL21) E. coli; assay: Imipenem MIC in parental E. coli; format: cell-based; settings: Escherichia coli, read-out: imipenem MIC

Row | SMILES | potentiation of ß-lactam antibacterial effects (in words) [1] | Ki [2] | activity towards IMP-1 (in words) [3] | fold increase of imipenem MIC, BL21/VIM-2 relative to parental BL21 [4] | MIC ([4]; Escherichia coli, read-out: imipenem MIC) | MIC [5]
1 | C#CCCOCc1nn[nH]c1CNS(=O)(=O)c1ccc(I)cc1 [Compound 1, N-((4-((but-3-ynyloxy)methyl)-1H-1,2,3-triazol-5-yl)methyl)-4-iodo-benzenesulfonamide] | did not potentiate | 410 ± 30 nM | inactive |  |  | 
2 | C[C@@H](O)[C@H]1C(=O)N2C(C(=O)O)=C(SCCN=CN)C[C@H]12 [imipenem] |  |  |  | approximately 9 fold | 1.85 µg/mL | 0.21 µg/mL (≈ 0.702 µM)
3 | O=C(O)c1cc[c]([Hg][Cl])cc1 [pCMB, p-chloromercuribenzoic acid] | synergistic effect |  |  |  |  | 
